Test results published in patent US10758633B2, “Nanoparticles for magnetic resonance imaging applications” (Massachusetts Institute of Technology, priority 2014, dated 2020).

Test: MRI contrast enhancement in blood over time, 1.5 T clinical MRI, mice brain slice
Format: in vivo
Details: intravenous injection, T1-weighted
Protocol: The MRI contrast enhancement of Magnevist® (the most commonly used gadolinium-based contrast agents, GBCAs) and ES-SPIONs in blood were compared over time. According to approved animal protocols, mice were scanned in a 1.5 T clinical MRI machine. After intravenous injection of Magnevist or ES-SPIONs, the T1-weighted images of a single slice in mice brain were taken using clinical MRI sequences (˜3.5 mins time length), and then the half-life of contrast enhancements of both agents were compared side-by-side. […] Left and right images show corresponding side views of the image in the middle. It can be seen in FIG. 6 that a three dimensional profile highlighting the blood vessels in brain was generated.

Compound: CNC[C@H](O)[C@@H](O)[C@H](O)[C@H](O)CO.CNC[C@H](O)[C@@H](O)[C@H](O)[C@H](O)CO.O=C([O-])CN(CCN(CC(=O)[O-])CC(=O)O)CCN(CC(=O)[O-])CC(=O)O.[Gd+3] [Magnevist]
- half-life of contrast enhancement: ~2 min
